Patent US5420282A, “Thiopyrano(2,3,4-c,d) indolyloxime ether alkylcarboxylates” (Abbott Laboratories, priority 1994, dated 1995)

System: calcium ionophore-induced LTB4 biosynthesis
Experiment: Inhibition of calcium ionophore-induced LTB4 biosynthesis in human whole blood
Type: cell-based
Settings: human heparinized whole blood; 15 min preincubation at 37° C.; A23187 8.3 μM, 30 minutes; LTB4 by radioimmunoassay; read-out: IC50, inhibition of leukotriene biosynthesis in human whole blood
Description: Inhibition of leukotriene biosynthesis was evaluated in an assay, involving calcium ionophore-induced LTB4 biosynthesis expressed human whole blood. Human heparinized whole blood was proincubated with test compounds or vehicle for 15 min at 37° C. followed by calcium ionophore A23187 challenge (final concentration of 8.3 μM) and the reaction terminated after 30 minutes by adding two volumes of methanol containing prostaglandin B2 as an internal recovery standard. The methanol extract was analyzed for LTB4 using a commercially available radioimmunoassay.

| IC50 | SMILES |
| --- | --- |
| 400 nM | CC1Cc2c(OCc3ccc(-c4ccccc4)cn3)ccc3c2c(c(CC(C)(C)C=NOCC(=O)O)n3Cc2ccc(Cl)cc2)S1 (centres unmarked) [Example 2, 3-[1-(4-chlorobenzyl)-4-methyl-6-(5-phenylpyridin-2-ylmethoxy]-4,5-dihydro-1H-thiopyrano[2,3,4-c,d]indol-2-yl]-2,2-dimethylpropionaldehyde oxime-O-acetic acid] |
| 2700 nM | CC1Cc2c(OCc3ccc4ccccc4n3)ccc3c2c(c(CC(C)(C)C=NOCC(=O)O)n3Cc2ccc(Cl)cc2)S1 (centres unmarked) [Example 1, 3-[1-(4-chlorobenzyl)-4-methyl-6-(quinolin-2-ylmethoxy]-4,5-dihydro-1H-thiopyrano[2,3,4-c,d]indol-2-yl]-2,2dimethylpropionaldehyde oxime-O-acetic acid] |
